The record followed here is publication PMC7515829, “HKDC1 C-terminal based peptides inhibit extranodal natural killer/T-cell lymphoma by modulation of mitochondrial function and EBV suppression” (Leukemia, 2020).

The test system of one data set is SNK6 xenograft. Briefly: SNK6 xenograft tumor volume. The class given is in vivo, mouse. The conditions noted are these: nude mice, n = 5; for tumor volumes on day 36: intratumoral 50 µM peptide every 2 days from day ~18, day 36, vs CTL; for tumor volumes on day 48: intratumoral 50 µM peptide every 2 days from day ~18, day 48, vs CTL.
In data set [1] the test system is SNK6 cells. Put plainly: Apoptosis rate by TUNEL assay. The class given is cell-based, human. The settings on record: 0.5 µM peptide, 6 h, compared with CTL group, n = 5 (Fig. 4h). Here is the method: (§1) Measurement of apoptosis and cell death. Apoptosis was evaluated by TUNEL assay using the In Situ Cell Death Detection Kit™ (Roche). Cells were fixed in 4% paraformaldehyde and labeled with TUNEL reagents. Stained cells were photographed by a fluorescence microscope (11). For cell death analysis, the propidium iodide (PI) staining was performed by addition of 6.25 µg/ml of PI to the cells, and cell death was immediately evaluated by FACS analysis (3).

The next data set concerns the target HKDC1/VDAC1 (Homo sapiens, UniProt P21796). Put plainly: IP/WB association of HKDC1 with VDAC1 in SNK6 cells. In kind it is cell-based. More on the design: endogenous in cells; host or cells: SNK6. The settings on record: 0.5 µM peptide, 6 h, vs CTL, n = 5 (Fig. 4c, d). Here is the method:
Immunoprecipitation (IP) and Western Blotting (WB). Cell lysates were pre-cleared by pre-immune IgG plus Protein A agarose beads for 2 hours, and the supernatants were immunoprecipitated by the indicated antibodies and a 50% slurry of Protein A Agarose beads overnight at 4 °C (9). After washing with buffer containing 50 mM Tris, pH 7.5, 150 mM NaCl, 1% NP-40, and 0.5% deoxycholate with protease inhibitors, proteins were released, separated on 10% SDS-PAGE gels, blotted by primary antibodies, and then simultaneously incubated with the differentially labeled species-specific secondary antibodies, anti-RABBIT IRDye™ 800CW (green) and anti-MOUSE (or goat) ALEXA680 (red). Membranes were scanned and quantitated by the ODYSSEY Infrared Imaging System (LI-COR, NE) (10).

For data set [2], the system named is SNK6 cells. Put plainly: Colony formation in soft agar. The class given is cell-based, human. The settings on record: 0.5 µM peptide, 6 h, vs CTL, n = 5 (Fig. 5e). The method, then: Colony formation in soft agar. This assay is a method for evaluating the ability of individual cell lines to grow in an anchorage-independent manner. Cells were resuspended in DMEM containing 5% FBS with 0.3% agarose and layered on top of 0.5% agarose in DMEM on 60-mm plates. 1000 cells were seeded in 60mm soft agar dishes for 30 days. The dishes were examined twice per week, and colonies that grew beyond […] in diameter were scored as positive. Each experiment was done in quadruplicate (8).

The subject of the next data set is MNCs from ENKTL patients. The settings on record: read-out: IC50 (µM) ENKTL, half-maximal cell death activity, peptides 0.1–15 µM, 6 h, PI staining, FACS, mean ± SEM, n in cell.
From the text: (§2) We investigated the potential role of HKDC1-based peptides in ENKTL cells that were isolated from the MNCs of ENKTL patients or SNK6 cell line. Three different kinds of HKDC1-based targeting peptides, including the last 15 aa at either the N-terminal (HKN15) or C-terminal (HKC15), or the last eight aa at the C-terminal (HKC8) were selected; four different kinds of cell-penetrating sequences were employed to deliver the HKDC1-based peptides, including Antp (a 16 penetrating residue long sequence from the Drosophila antennapedia-homeodomain), penetration-accelerating segment, TAT (HIV-1 TAT sequence), and Tf (the Tf receptor (TfR) internalization sequence) sequences. All of the aa with the D-configuration (marked as D) were synthesized as retro-inverso peptides. […] We then evaluated the toxic effect of two peptides (including Tf-D-HKC15 and Tf-D-HKC8) on different kinds of primary and cancer cell lines (see details in Table 2). […] We also evaluated the peptide delivery efficiency using ^125I-labeled uptake assay for both Tf-D-HKC8 and Tf-D-HKC15 peptides.
as §1

The test system of data set [3] is SNK6 cells.
From the text: as §2, §1

For data set [4], the system named is SNK6 cells. Briefly: Peptide delivery efficiency, 125I-labeled uptake assay. In kind it is in vitro ADME, human. The conditions noted are these: 125I label on tyrosine, 0.5 µM peptide, 6-h incubation, media and cells counted by liquid scintillation counter, mean, n = 4 (Fig S1).
From the text: as §2, with “Tf-D-HKC15 peptides. […]” for “Tf-D-HKC15 peptides.”
Figure S1. […] 0.5µM each of peptide was incubated with SNK6 cells for 6 hours, then both culture media and SNK6 cells were harvested for radioactivity assay using Liquid Scintillation Counter. n=4. *, P<0.05, vs Intracellular group. Results were expressed as mean ± SEM.

Setting [5] is: read-out: IC50 (µM) SNK6, half-maximal cell death activity, SNK6 cells, peptides 0.1–15 µM, 6 h, PI staining, FACS, mean ± SEM, n in cell (Table 1).

Read-outs that look alike come from different tables or passages of the source.

HKDC1/VDAC1, sequence (P21796 2-283 limits assumed): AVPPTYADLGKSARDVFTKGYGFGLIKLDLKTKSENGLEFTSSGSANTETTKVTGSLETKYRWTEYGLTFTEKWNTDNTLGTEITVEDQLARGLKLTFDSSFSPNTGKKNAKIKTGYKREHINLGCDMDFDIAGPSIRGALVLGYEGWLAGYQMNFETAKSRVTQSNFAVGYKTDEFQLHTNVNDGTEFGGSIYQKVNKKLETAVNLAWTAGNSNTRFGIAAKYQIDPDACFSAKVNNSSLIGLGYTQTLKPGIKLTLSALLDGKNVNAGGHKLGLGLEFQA
Procedure for SNK6 xenograft: To measure malignant SNK6 xenograft growth, 100 µl of 1 × 10^5 SNK6 cells in PBS were mixed with 100 µl growth factor-reduced basement membrane matrix (Matrigel™, BD Biosciences) resulting in 200 µl of solution that was injected subcutaneously along the mouse flank at each intended tumor site. Tumor size was measured using a digital caliper and volume was calculated, and mice were randomly divided into four groups (n = 9 per group) when the tumor volume reached 50–100 mm^3 on day ~18 after tumor inoculation and given treatment as follows: Group 1 (control (CTL)) was intratumorally injected with HBSS buffer (5.33 mM KCl, 0.44 mM KH2PO4, 138 mM NaCl, 4 mM NaHCO3, 0.3 mM Na2HPO4, and 5.6 mM glucose, pH 7.3) containing 0.05% DMSO; Group 2 (Tf-D-HKN15) received HBSS buffer containing 0.05% DMSO with 50 µM Tf-D-HKN15 peptides; Group 3 (Tf-D-HKC15) received HBSS buffer containing 0.05% DMSO with 50 µM Tf-D-HKC15 peptides; Group 4 (Tf-D-HKC8) received HBSS buffer containing 0.05% DMSO with 50 µM Tf-D-HKC8 peptides. The xenografts were injected (two points, 20 µl per tumor) every 2 days. Beginning on the day of inoculation, mouse weight and tumor volume were monitored every 2 days. Mice were monitored for changes in body weight and sacrificed when values fell below 20% of their initial weight; the survival curve was calculated and the final tumor tissues were isolated for biomedical analysis.
To measure the malignant SNK6 xenograft growth, the 100µl of 1x10^5 SNK6 cells in PBS were mixed with 100µl growth factor-reduced basement membrane matrix (Matrigel™, BD Biosciences) resulting in 200µl of solution that was injected subcutaneously along the mouse flank at each intended tumor site. Tumor size was measured using a digital caliper and volume was calculated, and mice were randomly divided into 4 groups (n=9 per group) when the tumor volume reached 50-100 mm^3 on day ~18 after tumor inoculation: Group 1 (CTL) was intratumorally injected with HBSS buffer (5.33 mM KCl, 0.44 mM KH2PO4, 138 mM NaCl, 4 mM NaHCO3, 0.3 mM Na2HPO4, and 5.6 mM glucose, pH 7.3) containing 0.05% DMSO; Group 2 (Tf-D-HKN15) received HBSS buffer containing 0.05% DMSO with 50 µM Tf-D-HKN15 peptides; Group 3 (Tf-D-HKC15) received HBSS buffer containing 0.05% DMSO with 50 µM Tf-D-HKC15 peptides; Group 4 (Tf-D-HKC8) received HBSS buffer containing 0.05% DMSO with 50 µM Tf-D-HKC8 peptides. The xenografts were injected (two points, 20 µL per tumor) every two days. Beginning on the day of inoculation, mouse weight and tumor volume were monitored every 2 days. Mice were monitored for changes in body weight and sacrificed when values fell below 20% of their initial weight, the survival curve was calculated and the final tumor tissues were isolated for biomedical analysis.

For the substance HAIYPRH-LQQAQKEN [Tf-D-HKC8], in the data set on SNK6 xenograft, the “tumor volumes on day 36” value is recorded as 36% and the “tumor volumes on day 48” value stood at 32%. In the data set with SNK6 cells [1], this substance returned an apoptosis rate increase of 11.4 fold. For the same substance, the “association of HKDC1 with VDAC1” value at HKDC1/VDAC1 is recorded as 24%. This substance had a colony formation in the data set on SNK6 cells [2] of 28%. Moreover, the IC50 with MNCs from ENKTL patients stood at 0.2 ± 0.1 µM. The IC50 in the data set with SNK6 cells [3] (setting [5]) turned out to be 0.3 ± 0.2 µM. In addition, the “peptide delivered into SNK6 cells (delivery efficiency)” value with SNK6 cells [4] stood at 53.4%.
For HAIYPRH-ITAVAKRLQQAQKEN [Tf-D-HKC15], the “tumor volumes on day 36” value in the data set on SNK6 xenograft was 63%. In addition, the “tumor volumes on day 48” value in the data set on SNK6 xenograft amounted to 70%. This substance also registered an apoptosis rate increase in the data set with SNK6 cells [1] of 2.91 fold. Moreover, at HKDC1/VDAC1, the “association of HKDC1 with VDAC1” value was found to be 68%. The substance further yielded a colony formation with SNK6 cells [2] of 64%. Further, the IC50 came to 0.9 ± 0.3 µM with MNCs from ENKTL patients; 1.2 ± 0.5 µM in the data set on SNK6 cells [3] (setting [5]); 1.2 ± 0.3 µM with SNK6 cells [3] (read-out: Peptide IC50 (µM), cell death, SNK6, Human natural killer/T-cell lymphoma/EBV(+), 0.1–15 µM, 6 h (suspension) or 12 h (adherent cells), PI/FACS, mean ± SEM (Table 2)). In the data set with SNK6 cells [4], the “peptide delivered into SNK6 cells (delivery efficiency)” value was 35.6%.
